Here are results for 15 compounds from patent US20180057505A1, “BICYCLIC HETEROARYL COMPOUNDS USEFUL AS INHIBITORS OF THE PAR-2 SIGNALING PATHWAY” (VERTEX PHARMACEUTICALS INCORPORATED, priority 2015, published 2018).

The structures appear in SMILES notation.

What all share (type): cell-based
Assay [1] has as its target T1, PAR2 (HT-29 cells) (Homo sapiens, UniProt P55085).
T1 construct: host or cells: HT-29
T1 sequence (P55085 26-397): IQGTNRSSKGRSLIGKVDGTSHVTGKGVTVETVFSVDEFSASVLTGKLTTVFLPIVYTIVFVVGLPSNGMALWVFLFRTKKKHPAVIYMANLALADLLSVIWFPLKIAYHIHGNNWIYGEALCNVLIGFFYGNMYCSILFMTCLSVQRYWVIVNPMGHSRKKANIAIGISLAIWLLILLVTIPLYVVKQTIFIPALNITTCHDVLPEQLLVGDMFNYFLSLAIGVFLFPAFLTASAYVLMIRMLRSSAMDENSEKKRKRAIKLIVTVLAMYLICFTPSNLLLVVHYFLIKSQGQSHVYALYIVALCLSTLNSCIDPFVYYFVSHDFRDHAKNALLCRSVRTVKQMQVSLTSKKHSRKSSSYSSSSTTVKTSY
The assay can be described thus: Ca FLIPR TETRA assay, ANTAGONIST mode, activator 8 μM SLIGKV. The following applies: HT-29 cells, activator 8 μM SLIGKV. As to the method: (§1) Protocol for Testing PAR2 Compounds in ANTAGONIST Mode Using the Ca FLIPR^TETRA Assay (384 Well).
(§2) 23000 HT-29 cells (ATCC# HTB-38) were plated in 384-well black, transparent-flat bottom plates and incubated in 25 uL of 1% FBS/McCoy's media ON at 37° C. under an atmosphere of 5% CO2. The following day, 25 uL FLIPR calcium 5 Molecular Devices assay reagent (Cat: R-8186) was added. Plates were incubated at 37° C. and r. t. for 45 min and 15 min, respectively. Compounds dilutions were prepared in 100% DMSO using a Biomek FX and diluted 20-fold in HBSS and then 5.5 uL was added directly to the cells by the FLIPR^TETRA (10× dilution) using FLIPR Tetra Pipette tips, black, non-sterile, 384 Molecular Devices (Cat: 9000-0764).
(§3) A first read was performed to determine whether the test compounds on their own can activate Ca^2+ responses. The cells were incubated with the compounds for 30 min at r. t. and then read in ANTAGONIST mode in the same plate by stimulating with 6.2 uL of a fixed concentration of the activator: final concentrations 8 μM SLIGKV, 1 U/mL Thrombin, 3.1 U/mL trypsin, or 0.6 μM UTP.

The target of assay [2] is T1, PAR2 (HT-29 cells). The assay can be described thus: Ca FLIPR TETRA assay, ANTAGONIST mode, activator 3.1 U/mL trypsin. The following applies: HT-29 cells, activator 3.1 U/mL trypsin. As to the method: as §1, §2, §3
In assay [3] the test system is Thrombin-stimulated Ca2+ response in HT-29 cells. The assay can be described thus: Ca FLIPR TETRA assay, ANTAGONIST mode, activator 1 U/mL Thrombin. The following applies: HT-29 cells, activator 1 U/mL Thrombin. As to the method: as §1, §2, §3
In assay [4] the test system is UTP-stimulated Ca2+ response in HT-29 cells. The assay can be described thus: Ca FLIPR TETRA assay, ANTAGONIST mode, activator 0.6 μM UTP. As to conditions: for IC50: Homo sapiens, HT-29 cells, activator 0.6 μM UTP. As to the method: as §1, §2, §3
Where [5] appears, read: maximal antagonist concentration per Method (A: 0.1, 1 or 2 μM; B: 50 μM).
Where [6] appears, read: Method A: maximal concentration of antagonist 0.1, 1 or 2 μM.

Consider `CC(C)c1cc(-c2ccc(F)cc2)nc2cc(C(=O)N3CCN(C(=O)C4CC4(F)F)CC3(C)C)oc12` (single isomer, unassigned) [Example I-76], for which the results for the IC50 (at PAR2 (HT-29 cells) [1] (setting [5]); at PAR2 (HT-29 cells) [2] (setting [5]); in assay [3]) were 33 nM, 100 nM and over 50000 nM, respectively. Besides, in assay [4] (@ 50 (μM)), the “UTP, % @ 50” value is listed as 56% @ 50.

On to `CC(CC(=O)N1CCN(C(=O)c2cc3nc(-c4ccc(Cl)c(F)c4)cc(C(C)(C)C)c3o2)C(C)(C)C1)C(=O)O` (single isomer, unassigned) [Example I-513], for which the IC50 on PAR2 (HT-29 cells) [1] (setting [6]) is 1.2 nM; at PAR2 (HT-29 cells) [2] (setting [6]), 1.7 nM; in assay [3] (Homo sapiens) it was over 2000 nM; in assay [4] it was over 2000 nM.

As to `CC(CC(=O)N1CCN(C(=O)c2cc3nc(-c4ccc(Cl)c(F)c4)cc(C(C)(C)C)c3o2)C(C)(C)C1)C(=O)O` (single isomer, unassigned) [Example I-514], the IC50 at PAR2 (HT-29 cells) [1] (setting [6]) was 1.3 nM; on PAR2 (HT-29 cells) [2] (setting [6]) it was 1.1 nM; in assay [3], over 2000 nM.

Consider `CC(C)c1cc(-c2ccc(F)cc2)nc2cc(C(=O)N3CCN(C(=O)C(C)(C)O)CC3(C)C)oc12` [Example I-1], for which the IC50 on PAR2 (HT-29 cells) [1] (setting [5]) came to 68 nM; on PAR2 (HT-29 cells) [2] (setting [5]), 64 nM; in assay [3] (Homo sapiens), 19000 nM; in assay [4], 20000 nM.

Turning to `CC(C)(C)OC(=O)N1CCN(C(=O)c2cc3nc(-c4ccc(F)cc4)cc(Cl)c3o2)C(C)(C)C1` [Example I-2], the IC50 is 22 nM at PAR2 (HT-29 cells) [1] (setting [5]), 29 nM at PAR2 (HT-29 cells) [2] (setting [5]), over 50000 nM in assay [3] (Homo sapiens) and over 50000 nM in assay [4].

`Cc1cc(-c2ccc(F)cc2)nc2cc(C(=O)N3CCN(C(=O)C(C)(C)O)CC3(C)C)oc12` [Example I-3]: the IC50 on PAR2 (HT-29 cells) [1] (setting [5]) was determined as 710 nM; on PAR2 (HT-29 cells) [2] (setting [5]), 810 nM; in assay [3] (Homo sapiens), 26000 nM; in assay [4], 18000 nM.

Regarding `CCc1cc(-c2ccc(F)cc2)nc2cc(C(=O)N3CCN(C(=O)C(C)(C)O)CC3(C)C)oc12` [Example I-4], the IC50 at PAR2 (HT-29 cells) [1] (setting [5]) came to 210 nM; on PAR2 (HT-29 cells) [2] (setting [5]), 190 nM; in assay [3] (Homo sapiens), 8400 nM; in assay [4], 12000 nM.

On to `CC(C)(O)C(=O)N1CCN(C(=O)c2cc3nc(-c4ccc(F)cc4)cc(C4CC4)c3o2)C(C)(C)C1` [Example I-5], for which the IC50 is 120 nM at PAR2 (HT-29 cells) [1] (setting [5]), 160 nM at PAR2 (HT-29 cells) [2] (setting [5]), 11000 nM in assay [3] (Homo sapiens) and 8800 nM in assay [4].

For the compound `CC(C)c1cc(-c2ccc(F)cc2)nc2cc(C(=O)N3CCN(C(=O)OC(C)(C)C)CC3(C)C)oc12` [Example I-6], the IC50 was 3.2 nM on PAR2 (HT-29 cells) [1] (setting [5]), 4.2 nM at PAR2 (HT-29 cells) [2] (setting [5]), over 50000 nM in assay [3] (Homo sapiens) and 36000 nM in assay [4].

Take `CC(C)c1cc(-c2ccc(F)cc2)nc2cc(C(=O)N3CCNC(=O)C3(C)C)oc12` [Example I-7]: the IC50 on PAR2 (HT-29 cells) [1] (setting [5]) turned out to be 23 nM; at PAR2 (HT-29 cells) [2] (setting [5]) it was 20 nM; in assay [3] (Homo sapiens), 3100 nM; in assay [4], 2700 nM.

With `CC(C)c1cc(-c2ccc(F)cc2)nc2cc(C(=O)N3CCN(C(=O)C4(O)CCC4)CC3(C)C)oc12` [Example I-8], the IC50 stood at 29 nM at PAR2 (HT-29 cells) [1] (setting [5]), 28 nM at PAR2 (HT-29 cells) [2] (setting [5]), 3600 nM in assay [3] (Homo sapiens) and 20000 nM in assay [4].

Consider `CC(C)(C)c1cc(-c2ccc(Cl)cc2)nc2cc(C(=O)N3CCNC(=O)C3(C)C)oc12` [Example I-157], for which the IC50 at PAR2 (HT-29 cells) [1] (setting [5]) was determined as 9.2 nM; on PAR2 (HT-29 cells) [2] (setting [5]), 7.9 nM.

For the compound `CC(C)(C)c1cc(-c2ccc(Cl)c(F)c2)nc2cc(C(=O)N3CCNC(=O)C3(C)C)oc12` [Example I-176], the half-inhibitory concentration (IC50) was 4.8 nM at PAR2 (HT-29 cells) [1] (setting [5]) and 5 nM on PAR2 (HT-29 cells) [2] (setting [5]).

For the compound `CC(C)(C)c1cc(-c2ccc(Cl)c(F)c2)nc2cc(C(=O)N3CCN(c4nc(C(=O)O)co4)CC3(C)C)oc12` [Example I-290], the IC50 on PAR2 (HT-29 cells) [1] (setting [5]) turned out to be 3.2 nM; at PAR2 (HT-29 cells) [2] (setting [5]), 6.1 nM.

Take `CC(C)(C)c1cc(-c2ccc(Cl)cc2)nc2cc(C(=O)N3CCN(c4cnccn4)CC3(C)C)oc12` [Example I-368]: the IC50 was 12 nM at PAR2 (HT-29 cells) [1] (setting [6]) and 9.5 nM at PAR2 (HT-29 cells) [2] (setting [6]).
